Assay results as given in US12617773B2, “Azetidin-3-ylmethanol derivatives as CCR6 receptor modulators” (Idorsia Pharmaceuticals Ltd, priority 2020, dated 2026).

Molecular target: T1, human CCR6 (Homo sapiens, UniProt P51684)
T1 construct: expressed in transfected cells; host or cells: HEK-293
T1 sequence (P51684 1-374): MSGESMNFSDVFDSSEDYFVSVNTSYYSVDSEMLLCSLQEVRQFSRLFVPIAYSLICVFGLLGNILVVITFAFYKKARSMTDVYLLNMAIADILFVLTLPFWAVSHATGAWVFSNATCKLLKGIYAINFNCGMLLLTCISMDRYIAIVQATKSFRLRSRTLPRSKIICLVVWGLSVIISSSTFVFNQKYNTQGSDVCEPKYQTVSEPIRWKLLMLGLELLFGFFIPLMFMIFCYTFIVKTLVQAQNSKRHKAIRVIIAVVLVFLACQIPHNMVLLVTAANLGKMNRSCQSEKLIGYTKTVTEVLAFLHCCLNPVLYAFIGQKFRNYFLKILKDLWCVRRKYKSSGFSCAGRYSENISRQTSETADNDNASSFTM
Test: FLIPR assay (inhibition of CCL20-induced calcium signal)
Type: cell-based
Details: HEK-293 cells expressing human CCR6; mean values where determined several times; read-out: FLIPR IC50
How it was run: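 IC50 values come from baseline-corrected peak calcium fluorescence after agonist. The agonist was CCL20 at 10 nM final, added to engineered human CCR6 HEK-293 cells following a 30-min, room-temperature, dark preincubation with serially diluted compound. Readings were taken in a fluorometric imaging plate reader.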

Row | IC50 | SMILES
1 | 18.9 nM | CNS(=O)(=O)N1CCC(C)(C#Cc2cncc([C@@](O)(c3ccc(C(C)C)cc3)C3(C)CN(C)C3)c2)CC1 [Example 604]
2 | 78.6 nM | CC(C)c1ccc([C@](O)(c2cncc(C#CC(C)(C)S(C)(=O)=O)c2)C2(C)CN(C)C2)cc1 [Example 605]
3 | 22.6 nM | CC(C)c1ccc([C@](O)(c2cncc(C#CC3(S(=O)(=O)N(C)C)CC3)c2)C2(C)CN(C)C2)cc1 [Example 606]
4 | 104 nM | CC(C)c1ccc([C@](O)(c2cncc(C#CC3(S(N)(=O)=O)CC3)c2)C2(C)CN(C)C2)cc1 [Example 607]
5 | 43.5 nM | CC(C)c1ccc([C@](O)(c2cncc(C#CC(C)(C)S(=O)(=O)C3CC3)c2)C2(C)CN(C)C2)cc1 [Example 608]
6 | 656 nM | CC(C)c1ccc([C@](O)(c2cncc(C#C[C@]3(O)CCN(C)C3=O)c2)C2(C)CN(C)C2)cc1 [Example 609]
7 | 426 nM | CC(C)c1ccc([C@](O)(c2cncc(C#C[C@@]3(O)CCN(C)C3=O)c2)C2(C)CN(C)C2)cc1 [Example 610]
8 | 74.9 nM | CC(C)c1ccc([C@](O)(c2cncc(C#CC3(O)CCOc4cccnc43)c2)C2(C)CN(C)C2)cc1 (stereo partly shown) [Example 611]
9 | 58.5 nM | CC(C)c1ccc([C@](O)(c2cncc(C#CC3(O)C(=O)N(C)c4ccccc43)c2)C2(C)CN(C)C2)cc1 (stereo partly shown) [Example 612]
10 | 11.1 nM | CC(C)c1ccc([C@](O)(c2cncc(C#CC(C)(O)c3n[nH]c4ccccc34)c2)C2(C)CN(C)C2)cc1 (stereo partly shown) [Example 613]
11 | 12.6 nM | CC(C)c1ccc([C@](O)(c2cncc(C#CC(C)(O)c3nn(C)c4ccccc34)c2)C2(C)CN(C)C2)cc1 (stereo partly shown) [Example 614]
12 | 102 nM | Cc1nccc(C(C)(O)C#Cc2cncc([C@@](O)(c3ccc(C(C)C)cc3)C3(C)CN(C)C3)c2)n1 (stereo partly shown) [Example 616]
13 | 53.5 nM | Cc1cnc(C(C)(O)C#Cc2cncc([C@@](O)(c3ccc(C(C)C)cc3)C3(C)CN(C)C3)c2)cn1 (stereo partly shown) [Example 617]
14 | 23.3 nM | Cc1ncc(C(C)(O)C#Cc2cncc([C@@](O)(c3ccc(C(C)C)cc3)C3(C)CN(C)C3)c2)s1 (stereo partly shown) [Example 618]
15 | 68.8 nM | CC(C)c1ccc([C@](O)(c2cncc(C#CC(C)(O)c3cc(C4CC4)ncn3)c2)C2(C)CN(C)C2)cc1 (stereo partly shown) [Example 619]
16 | 235 nM | CC(=O)NC(C)(C)C#Cc1cncc([C@@](O)(c2ccc(C(C)C)cc2)C2(C)CN(C)C2)c1 [Example 621]

Row | IC50 | SMILES
17 | 14.1 nM | CC(C)c1ccc([C@](O)(c2cncc(C#CC(C)(O)c3cc(C(F)(F)F)ncn3)c2)C2(C)CN(C)C2)cc1 (stereo partly shown) [Example 632]
18 | 42.5 nM | CC(C)c1ccc([C@](O)(c2cncc(C#CC(C)(O)c3cc(C(F)F)ncn3)c2)C2(C)CN(C)C2)cc1 (stereo partly shown) [Example 633]
19 | 40.6 nM | CC(C)c1ccc([C@](O)(c2cncc(C#CC3(c4ccccn4)CC3)c2)C2(C)CN(C)C2)cc1 [Example 634]
20 | 23.2 nM | Cc1cc(C2(C#Cc3cncc([C@@](O)(c4ccc(C(C)C)cc4)C4(C)CN(C)C4)c3)CC2)ncn1 [Example 635]
21 | 107 nM | CC(=O)N1CCC(CCc2cncc([C@@](O)(c3ccc(C(C)C)cc3)C3(C)CN(C)C3)c2)CC1 [Example 636]
22 | 46.3 nM | CC(C)c1ccc([C@](O)(c2cncc(CCC(C)(O)C(F)(F)F)c2)C2(C)CN(C)C2)cc1 (stereo partly shown) [Example 637]
23 | 509 nM | CC(C)c1ccc([C@](O)(c2cncc(CCC(C)(C)N3CCOC3=O)c2)C2(C)CN(C)C2)cc1 [Example 638]
24 | 96.6 nM | CC(C)c1ccc([C@](O)(c2cncc(CCC(C)(C)N3CCCC3=O)c2)C2(C)CN(C)C2)cc1 [Example 639]
25 | 169 nM | CC(C)c1ccc([C@](O)(c2cncc(CCC(C)(C)N3CCN(C)C3=O)c2)C2(C)CN(C)C2)cc1 [Example 640]
26 | 67 nM | CC(C)c1ccc([C@](O)(c2cncc(CCC(C)(C)N3CCNC3=O)c2)C2(C)CN(C)C2)cc1 [Example 641]
27 | 277 nM | CC(=O)N1CCC[C@]1(C)CCc1cncc([C@@](O)(c2ccc(C(C)C)cc2)C2(C)CN(C)C2)c1 [Example 642]
28 | 16.9 nM | CC(C)c1ccc([C@](O)(c2cncc(CCC(C)(O)c3n[nH]c4ccccc34)c2)C2(C)CN(C)C2)cc1 (stereo partly shown) [Example 643]
29 | 147 nM | CC(C)c1ccc([C@](O)(c2cncc(CCC(C)(O)c3ccn(C4CC4)n3)c2)C2(C)CN(C)C2)cc1 (stereo partly shown) [Example 644]
30 | 110 nM | Cc1nccc(C(C)(O)CCc2cncc([C@@](O)(c3ccc(C(C)C)cc3)C3(C)CN(C)C3)c2)n1 (stereo partly shown) [Example 645]
31 | 129 nM | Cc1cnc(C(C)(O)CCc2cncc([C@@](O)(c3ccc(C(C)C)cc3)C3(C)CN(C)C3)c2)cn1 (stereo partly shown) [Example 646]

Continued, compound first:

Row | SMILES | IC50
32 | CCCc1ccc([C@](O)(c2cncc(-c3noc(C4CCN(C(C)=O)CC4)n3)c2)C2(C)CN(C)C2)cc1 [Example 577] | 66.1 nM
33 | CC(=O)N1CCC(c2nc(-c3cncc([C@@](O)(c4ccc(C(C)C)cc4)C4(C)CN(C(C)C)C4)c3)no2)CC1 [Example 578, 1-[4-(3-{5-[(R)-Hydroxy-(1-isopropyl-3-methyl-azetidin-3-yl)-(4-isopropyl-phenyl)-methyl]-pyridin-3-yl}-[1,2,4]oxadiazol-5-yl)-piperidin-1-yl]-ethanone] | 97.2 nM
34 | CC(=O)N1CCC(c2nc(-c3cncc([C@@](O)(c4ccc(C(C)C)cc4)C4(C)CN(CC(F)F)C4)c3)no2)CC1 [Example 579, 1-[4-(3-{5-[(R)-[1-(2,2-Difluoro-ethyl)-3-methyl-azetidin-3-yl]-hydroxy-(4-isopropyl-phenyl)-methyl]-pyridin-3-yl}-[1,2,4]oxadiazol-5-yl)-piperidin-1-yl]-ethanone] | 411 nM
35 | CC(=O)N1CCC(c2nc(-c3cncc([C@@](O)(c4ccc(C(C)C)cc4)C4(C)CN(CCO)C4)c3)no2)CC1 [Example 580, 1-[4-(3-{5-[(R)-Hydroxy-[1-(2-hydroxy-ethyl)-3-methyl-azetidin-3-yl]-(4-isopropyl-phenyl)-methyl]-pyridin-3-yl}[1,2,4]oxadiazol-5-yl)-piperidin-1-yl]-ethanone] | 294 nM
36 | CC(=O)N1CCC(c2nc(-c3cncc([C@@](O)(c4ccc(C(C)C)cc4)C4(C)CN(CC5CC5)C4)c3)no2)CC1 [Example 581] | 113 nM
37 | COCCN1CC(C)([C@](O)(c2ccc(C(C)C)cc2)c2cncc(-c3noc(C4CCN(C(C)=O)CC4)n3)c2)C1 [Example 582] | 485 nM
38 | CC(=O)N1CCC(c2nc(-c3cncc([C@@](O)(c4ccc(C(C)C)cc4)C4(C)CN(CCC(F)(F)F)C4)c3)no2)CC1 [Example 583] | 239 nM
39 | CCCN1CC(C)([C@](O)(c2ccc(C(C)C)cc2)c2cncc(-c3noc(C4CCN(C(C)=O)CC4)n3)c2)C1 [Example 584] | 130 nM
40 | CCN1CC(C)([C@](O)(c2ccc(C(C)C)cc2)c2cncc(-c3noc(C4CCN(C(C)=O)CC4)n3)c2)C1 [Example 585] | 116 nM
41 | CC(=O)N1CCC(C#Cc2cncc([C@@](O)(c3ccc(C(C)C)cc3)C3(C)CN(C)C3)c2)CC1 [Example 586] | 67 nM
42 | CC(C)c1ccc([C@](O)(c2cncc(C#CC(C)(O)C(F)(F)F)c2)C2(C)CN(C)C2)cc1 (stereo partly shown) [Example 587] | 14.8 nM
43 | CC(C)c1ccc([C@](O)(c2cncc(C#CC(C)(C)NC(=O)C3CC3)c2)C2(C)CN(C)C2)cc1 [Example 588] | 119 nM
44 | CC(C)C(=O)NC(C)(C)C#Cc1cncc([C@@](O)(c2ccc(C(C)C)cc2)C2(C)CN(C)C2)c1 [Example 589] | 154 nM
45 | COCC(=O)NC(C)(C)C#Cc1cncc([C@@](O)(c2ccc(C(C)C)cc2)C2(C)CN(C)C2)c1 [Example 590] | 235 nM
46 | CC(C)c1ccc([C@](O)(c2cncc(C#CC(C)(C)N3CCOC3=O)c2)C2(C)CN(C)C2)cc1 [Example 591] | 71.6 nM
47 | CC(C)c1ccc([C@](O)(c2cncc(C#CC(C)(C)N3CCCC3=O)c2)C2(C)CN(C)C2)cc1 [Example 592] | 44.8 nM
48 | CC(C)c1ccc([C@](O)(c2cncc(C#CC(C)(C)N3CCN(C)C3=O)c2)C2(C)CN(C)C2)cc1 [Example 593] | 51.6 nM
49 | CC(C)c1ccc([C@](O)(c2cncc(C#CC(C)(C)N3CCNC3=O)c2)C2(C)CN(C)C2)cc1 [Example 594] | 45.4 nM
50 | CC(C)c1ccc([C@](O)(c2cncc(C#CC3(N4CCOC4=O)CC3)c2)C2(C)CN(C)C2)cc1 [Example 595] | 93.2 nM
51 | CC(=O)N1CCC[C@]1(C)C#Cc1cncc([C@@](O)(c2ccc(C(C)C)cc2)C2(C)CN(C)C2)c1 [Example 596] | 117 nM
52 | CC(=O)N1CCC(O)(C#Cc2cncc([C@@](O)(c3ccc(C(C)C)cc3)C3(C)CN(C)C3)c2)CC1 [Example 597] | 395 nM
53 | CC(=O)N1CCC(C(C)(O)C#Cc2cncc([C@@](O)(c3ccc(C(C)C)cc3)C3(C)CN(C)C3)c2)CC1 (stereo partly shown) [Example 598] | 94.8 nM
54 | CC(=O)N1CCC(C(O)C#Cc2cncc([C@@](O)(c3ccc(C(C)C)cc3)C3(C)CN(C)C3)c2)CC1 (stereo partly shown) [Example 599] | 149 nM
55 | CC(=O)N1CCC(CC#Cc2cncc([C@@](O)(c3ccc(C(C)C)cc3)C3(C)CN(C)C3)c2)CC1 [Example 600] | 45.7 nM
56 | CC(=O)N1CCC(C)(C(O)C#Cc2cncc([C@@](O)(c3ccc(C(C)C)cc3)C3(C)CN(C)C3)c2)CC1 (stereo partly shown) [Example 601] | 75.5 nM
57 | CC(=O)N1CCC(C)(C#Cc2cncc([C@@](O)(c3ccc(C(C)C)cc3)C3(C)CN(C)C3)c2)CC1 [Example 602] | 39.5 nM
58 | CC(C)c1ccc([C@](O)(c2cncc(C#CC3CCN(S(C)(=O)=O)CC3)c2)C2(C)CN(C)C2)cc1 [Example 603] | 31.2 nM
